Results as given in patent US4316898A, “Cephalosporins” (Boehringer Ingelheim KG, priority 1979, dated 1982).
In brackets after ≈: the same amount, converted by molar mass.

Columns and labels:
[1] = tested on: Pseudomonas aeruginosa Hamburgensis; test: Serial dilution test in the microtiter system, MIC against Pseudomonas aeruginosa Hamburgensis; assay type: cell-based; conditions: minimum inhibitory concentration, 37° C., 18 to 20 hours, read-out: MIC, Pseud. aerug. Hbg.
Experimental: (§1) The tests were performed using the serial dilution test in the microtiter system. The effect of the test compounds on bacteriostasis was examined at the following concentrations: 80, 40, 20, 10, 5, 2.5, 1.25, 0.6, 0.3, 0.08 and 0.02 μgm/ml. The nutrient medium consisted of 10 gm of peptone, 8 gm of meat extract oxoid, 3 gm of sodium chloride, and 2 gm of sec. sodium phosphate diluted with distilled water to […] (pH 7.2-7.4). Only in the test against streptococci 1% of glucose was added. The age of the primary cultures was approximately 20 hours. The standardization of the bacteria suspension was effected using a photometer according to the method of Eppendorf (test tube .phi. 14 mm, filter 546 nm), using for comparison a barium sulfate suspension formed by the addition of 3.0 ml of 1% barium chloride solution to 97 ml of 1% sulfuric acid. After the standardization,Streptococcus aronson was further diluted to a concentration of 1:15, and the other bacteria to a concentration of 1:1500, using a sodium chloride solution.
(§2) 16 mgm of the particular test compound were put into a 10 ml measuring flask, and the flask was subsequently filled to the mark with solvent. The further dilution series was standardized with distilled water or the appropriate solvent.
(§3) The cavities of the microtiter plates were filled with 0.2 ml of nutrient medium. 0.01 ml of the appropriate test compound solution was then added, followed by inoculation with 0.01 ml of the standardized bacteria suspension. The bacteria were incubated at 37° C. for 18 to 20 hours. Control tests using only the solvent were carried out simultaneously.
(§4) The measurement was carried out macroscopically to determine the minimum inhibitory concentration (the lowest still bacteriostatically effective concentration).
(§5) The following test organisms were used:
(§6) Staphylococcus aureus SG 511, St. aureus E 88 (β-lactamase carrier), Escherichia coli ATCC 11 775, Pseudomonas aeruginosa Hamburgensis and Pseudomonas aeruginosa Walter, Serratia macrescens ATCC 13 880, Klebsiella pneumoniae ATCC 10 031 and 272, Proteus mirabilis Hamburgensis, Proteus rettgeri Eb. cloaceae ATCC 13047, and E. coli R+TEM (β-lactamase carrier).
(§7) The following tables show the determined minimum inhibitory concentrations (MIC) for a few representative compounds (E=Na) of the present invention, and two known cephalosporins for comparison: […]

E. coli ATCC 11775 = test: In vivo test in mice against experimental E. coli infection; design: species or system Female NMRI mice; conditions: Escherichia coli, ATCC11775, sc, 168 h; subcutaneous; per dose; dose at which 50% of the animals survived; observation 7 days
Experimental: (§8) A series of the compounds according to the invention was tested in vivo in mice against experimental infections. As pathogenic bacteria were used E. coli ATCC 11775 and Pseudomonas aeruginosa Walter. An intraperitoneal infection was induced in each mouse with 0.2 ml of a 5% mucin suspension of the bacteria corresponding of approximately 1.4×10^6 E. coli cells and 1.3×10^6 Pseudomonas cells per mouse. Female NMRI mice were used, divided into groups of 10 animals. Two groups were untreated and the remaining groups were treated with different doses of the cephalosporins to be tested to determine the ED50 (dose at which 50% of the animals survived). The groups infected with E. coli were on the first day treated with the test compound three times ([…] post infectionem) and on the second day twice. The groups with the Pseudomonas infection were on the first day treated with the test compound six times (1, 3, 5, 7, 9 and 11 hours post infectionem), and on the following two days twice.
(§9) The observation time was in both cases 7 days.

Proteus rettgeri = test: Serial dilution test in the microtiter system, MIC against Proteus rettgeri; assay type: cell-based; conditions: Providencia rettgeri; minimum inhibitory concentration; 37° C., 18 to 20 hours; read-out: MIC, Prot. rettg.
Experimental: as §1, §2, §3, §4, §5, §6, §7

[2] = tested on: Serratia macrescens ATCC 13 880; test: Serial dilution test in the microtiter system, MIC against Serratia marcescens ATCC 13880; assay type: cell-based; conditions: read-out: MIC, Serr. marcesc. ATCC 13880
Experimental: as §1, §2, §3, §4, §5, §6, §7

[3] = tested on: Pseudomonas aeruginosa Walter; test: In vivo test in mice against experimental Pseudomonas infection; design: species or system Female NMRI mice; conditions: Pseudomonas aeruginosa, sc, 168 h; subcutaneous; per dose; dose at which 50% of the animals survived; observation 7 days
Experimental: as §8, §9

[4] = tested on: Escherichia coli ATCC 11 775; test: Serial dilution test in the microtiter system, MIC against E. coli ATCC 11775; assay type: cell-based; conditions: minimum inhibitory concentration, 37° C., 18 to 20 hours
Experimental: as §1, §2, §3, §4, §5, §6, §7

St. aureus E 88 = test: Serial dilution test in the microtiter system, MIC against S. aureus E 88 (β-lactamase carrier); assay type: cell-based; conditions: Staphylococcus aureus, E88, minimum inhibitory concentration, 37° C., 18 to 20 hours
Experimental: as §1, §2, §3, §4, §5, §6, §7

Eb. cloaceae ATCC 13047 = test: Serial dilution test in the microtiter system, MIC against Eb. cloaceae ATCC 13047; assay type: cell-based; conditions: minimum inhibitory concentration; 37° C., 18 to 20 hours
Experimental: as §1, §2, §3, §4, §5, §6, §7

[5] = tested on: Staphylococcus aureus SG 511; test: Serial dilution test in the microtiter system, MIC against S. aureus SG 511; assay type: cell-based; conditions: SG511, minimum inhibitory concentration, 37° C., 18 to 20 hours
Experimental: as §1, §2, §3, §4, §5, §6, §7

E. coli R+TEM = test: Serial dilution test in the microtiter system, MIC against E. coli R+TEM (β-lactamase carrier); assay type: cell-based; conditions: Escherichia coli, read-out: MIC, E. coli R + TEM
Experimental: as §1, §2, §3, §4, §5, §6, §7

[6] = tested on: Klebsiella pneumoniae ATCC 10 031; test: Serial dilution test in the microtiter system, MIC against Klebsiella pneumoniae ATCC 10031; assay type: cell-based; conditions: minimum inhibitory concentration, 37° C., 18 to 20 hours, read-out: MIC, Klebs. pneum. ATCC 10031
Experimental: as §1, §2, §3, §4, §5, §6, §7

[7] = tested on: Proteus mirabilis Hamburgensis; test: Serial dilution test in the microtiter system, MIC against Proteus mirabilis Hamburgensis; assay type: cell-based; conditions: minimum inhibitory concentration, 37° C., 18 to 20 hours, read-out: MIC, Prot. Mir. Hbg.
Experimental: as §1, §2, §3, §4, §5, §6, §7

[8] = tested on: Pseudomonas aeruginosa Walter; test: Serial dilution test in the microtiter system, MIC against Pseudomonas aeruginosa Walter; assay type: cell-based; conditions: minimum inhibitory concentration, 37° C., 18 to 20 hours, read-out: MIC, Pseud. aerug. Walter
Experimental: as §1, §2, §3, §4, §5, §6, §7

[9] = tested on: Klebsiella pneumoniae 272; test: Serial dilution test in the microtiter system, MIC against Klebsiella pneumoniae 272; assay type: cell-based; conditions: minimum inhibitory concentration, 37° C., 18 to 20 hours, read-out: MIC, Klebs. pneum. 272
Experimental: as §1, §2, §3, §4, §5, §6, §7

Compound	MIC [1]	ED50 (E. coli ATCC 11775)	MIC (Proteus rettgeri)	MIC [2]	ED50 [3]	MIC [4]	MIC (St. aureus E 88)	MIC (Eb. cloaceae ATCC 13047)	MIC [5]	MIC (E. coli R+TEM)	MIC [6]	MIC [7]	MIC [8]	MIC [9]
CNS(=O)(=O)c1ccc(Nc2ncc(NC(=O)N[C@@H](C(=O)N[C@@H]3C(=O)N4C(C(=O)O)=C(CSc5nnnn5C)CS[C@H]34)c3ccc(O)cc3)c(O)n2)cc1 [K]	4 µg/mL (≈ 5.01 µM)	0.3 mg/kg	0.25 µg/mL (≈ 0.313 µM)	0.13 µg/mL (≈ 0.163 µM)	3.6 mg/kg	< 0.03 µg/mL	4 µg/mL (≈ 5.01 µM)	0.5 µg/mL (≈ 0.626 µM)	0.5 µg/mL (≈ 0.626 µM)	2 µg/mL	0.06 µg/mL (≈ 0.0751 µM)	0.06 µg/mL (≈ 0.0751 µM)	2 µg/mL (≈ 2.5 µM)	0.13 µg/mL (≈ 0.163 µM)
Cn1nnnc1SCC1=C(C(=O)O)N2C(=O)[C@@H](NC(=O)[C@H](NC(=O)Nc3cnc(C4CC4)nc3O)c3ccc(O)cc3)[C@H]2SC1 [A]	8 µg/mL (≈ 12.2 µM)	1.6 mg/kg	2 µg/mL (≈ 3.05 µM)	2 µg/mL (≈ 3.05 µM)	15.2 mg/kg	0.5 µg/mL (≈ 0.764 µM)	8 µg/mL (≈ 12.2 µM)	2 µg/mL (≈ 3.05 µM)	0.5 µg/mL (≈ 0.764 µM)	8 µg/mL	1 µg/mL (≈ 1.53 µM)	0.5 µg/mL (≈ 0.764 µM)	8 µg/mL (≈ 12.2 µM)	1 µg/mL (≈ 1.53 µM)
Cn1nnnc1SCC1=C(C(=O)O)N2C(=O)[C@@H](NC(=O)[C@H](NC(=O)Nc3cnc(NCCCO)nc3O)c3ccc(O)cc3)[C@H]2SC1 [E]	4 µg/mL (≈ 5.82 µM)	0.8 mg/kg	1 µg/mL (≈ 1.45 µM)	1 µg/mL (≈ 1.45 µM)	11.2 mg/kg	0.25 µg/mL (≈ 0.364 µM)	8 µg/mL (≈ 11.6 µM)	0.5 µg/mL (≈ 0.727 µM)	1 µg/mL (≈ 1.45 µM)	16 µg/mL	0.5 µg/mL (≈ 0.727 µM)	0.13 µg/mL (≈ 0.189 µM)	8 µg/mL (≈ 11.6 µM)	1 µg/mL (≈ 1.45 µM)
